In US20230364118A1, “RIBITOL TREATMENT” (priority 2020, published 2023):
Read-outs that look alike come from different tables or passages of the source.

Key:
hERG = hERG (Homo sapiens, UniProt Q12809); assay: in vitro
Description: Therefore, the concentrations chosen for the definitive hERG assay were 0.1, 0.3, 1, and 3 mM, the detected concentrations of postperfusion solution were 0.101, 0.293, 0.999, and 2.90 mM, respectively.

Phase 2 patient study = type: in vivo, human; details: for average drop in fatigue (scale of 1 to 10): 90 days
Source text: Ribitol is being tested in an ongoing Phase 2 study with 14 patients receiving doses of either 6 g once daily (QD), 6 g twice daily (BID), or 12 g BID. Data is available following 3 months of therapeutic exposure in 8 subjects (6 g QD, n=4, 6 g BID, n=4). […] All 12 subjects have shown decreases in creatine kinase from baseline. Younger, ambulatory patients started with higher baseline creatine kinase values and had the largest magnitude drops. Decreases were observable starting at day 8 with continued declines through day 90. Efficacy studies are ongoing. Improvements in 10-meter walk test (MWT) to test ambulation, NSAD for gross motor function, PUL2.0 for upper limb function, and spirometry for respiratory function have been observed (Table 17). […] Decreases in patient-reported muscle fatigue over the 90-day treatment period has been observed in 7 of 8 patients. These 7/8 patients have reported decreases as recorded in a daily diary and noted on a scale of 1 to 10 where 1 indicates no fatigue and a 10 is the maximum level of fatigue.

[1] = Phase 1 SAD/MAD study in healthy subjects; type: in vivo, human; details: for Cmax / Tmax / AUC(0-t): human, in vivo, oral, steady state, 6 days; for AUC(0-t): read-out: AUC(0-24)
Source text: The study described below is a randomized, blinded, placebo-controlled, parallel group study of the administration of single ascending doses (SAD) and multiple ascending doses (MAD) of ribitol to healthy subjects. The SAD part of this study includes 1 food effect (FE) cohort. The SAD and MAD phases of the study are nested.
Up to a maximum of 6 cohorts will be enrolled. The starting dose will be 0.5 g. Tentative dose levels will be 1.5 g, 3 g, 6 g, and 12 g, however, actual dose increments (including possible decrements) for Cohorts 2 and above will be determined by the safety review committee (SRC) and based on a minimum of 24 h of post dose PK data and at least 72 h post dose safety data from the previous dose level. A sentinel dosing plan will be employed at each dose level where the first 2 healthy participants (1 ribitol, 1 placebo) of each cohort will be dosed as sentinels at least 24 h prior to dosing the remaining cohort's participants. Once the informed consent form (ICF) is signed and eligibility criteria are determined, subjects will be admitted to the clinical research unit (CRU) 1 day prior to dosing (Day −1). Continuous cardiac monitoring using telemetry will be performed starting at least 12 h prior to dosing through at least 24 h after dosing.
Subjects will be admitted to the CRU 1 day prior to dosing (Day −1). On Day 1, subjects will start a 6-day course of orally administered daily study drug together with water after an overnight fast of at least 10 h prior to through at least 4 h after dosing. If dosing occurs more than once per day based on the data from the SAD cohort(s), instructions for dosing and any relaxation of the fasting requirements will be provided in a separate document. Water ad libitum is permitted except 1 h prior to through 1 h after dosing. Subjects will remain in the CRU until Day 8. Vital signs, ECGs, evaluation of AEs and blood draws for PK and safety laboratory tests will be obtained serially (see Schedule of Assessments, below). Subjects will return for an EOS visit on Day 10 (+5 day window allowed).
In the Phase 1 study, conducted essentially as described above, in Example 3. Subject in the single dose arm received 0.5, 1.5, 3, 6, 9, 12, or 15 grams of ribitol (data not shown). […] Subjects in the multiple dose arm received 1.5 g once daily, 3 g once daily, 3 g twice daily (q 12 h), 6 g twice daily (q 12 h), and 9 g twice daily (q 12 h). Subjects in the 3 g BID arm achieved steady-state AUC(0-24) values about the target threshold set by animal studies (182 μg*h/mL).
Clinical studies were performed as described in Example 3, with the exception that two additional doses of ribitol (9 g and 15 g) were administered in the SAD arm, i.e., the SAD doses were 0.5 g, 1.5 g, 3 g, 6 g, 9 g, 12 g, and 15 g ribitol.

[2] = Plasma protein binding, animals pooled (range); type: in vitro ADME, CD-1 mouse; details: CD-1, Sprague-Dawley, Gottingen, mouse, rat, minipig, animal plasma, 0.49 and 1.31 mM
Description: Protein binding studies with ribitol were performed in vitro using plasma from CD-1 mouse, Sprague-Dawley rat, Gottingen minipig, and human at 75 μg/mL (0.49 mM) and 200 μg/mL (1.31 mM) using the rapid equilibrium dialysis method. The percent of ribitol bound to plasma was approximately similar between the two concentrations tested in all species.

[3] = 3 g, 3 g q 12 h (total 6 g/day)
[4] = 6 g q 12 h, 6 g q 12 h (total 12 g/day)
[5] = 9 g, 9 g q 12 h (total 18 g/day)
[6] = single doses 0.5, 1.5, 3, 6, 9, 12, 15 g

Chain of hERG (Q12809 whole entry): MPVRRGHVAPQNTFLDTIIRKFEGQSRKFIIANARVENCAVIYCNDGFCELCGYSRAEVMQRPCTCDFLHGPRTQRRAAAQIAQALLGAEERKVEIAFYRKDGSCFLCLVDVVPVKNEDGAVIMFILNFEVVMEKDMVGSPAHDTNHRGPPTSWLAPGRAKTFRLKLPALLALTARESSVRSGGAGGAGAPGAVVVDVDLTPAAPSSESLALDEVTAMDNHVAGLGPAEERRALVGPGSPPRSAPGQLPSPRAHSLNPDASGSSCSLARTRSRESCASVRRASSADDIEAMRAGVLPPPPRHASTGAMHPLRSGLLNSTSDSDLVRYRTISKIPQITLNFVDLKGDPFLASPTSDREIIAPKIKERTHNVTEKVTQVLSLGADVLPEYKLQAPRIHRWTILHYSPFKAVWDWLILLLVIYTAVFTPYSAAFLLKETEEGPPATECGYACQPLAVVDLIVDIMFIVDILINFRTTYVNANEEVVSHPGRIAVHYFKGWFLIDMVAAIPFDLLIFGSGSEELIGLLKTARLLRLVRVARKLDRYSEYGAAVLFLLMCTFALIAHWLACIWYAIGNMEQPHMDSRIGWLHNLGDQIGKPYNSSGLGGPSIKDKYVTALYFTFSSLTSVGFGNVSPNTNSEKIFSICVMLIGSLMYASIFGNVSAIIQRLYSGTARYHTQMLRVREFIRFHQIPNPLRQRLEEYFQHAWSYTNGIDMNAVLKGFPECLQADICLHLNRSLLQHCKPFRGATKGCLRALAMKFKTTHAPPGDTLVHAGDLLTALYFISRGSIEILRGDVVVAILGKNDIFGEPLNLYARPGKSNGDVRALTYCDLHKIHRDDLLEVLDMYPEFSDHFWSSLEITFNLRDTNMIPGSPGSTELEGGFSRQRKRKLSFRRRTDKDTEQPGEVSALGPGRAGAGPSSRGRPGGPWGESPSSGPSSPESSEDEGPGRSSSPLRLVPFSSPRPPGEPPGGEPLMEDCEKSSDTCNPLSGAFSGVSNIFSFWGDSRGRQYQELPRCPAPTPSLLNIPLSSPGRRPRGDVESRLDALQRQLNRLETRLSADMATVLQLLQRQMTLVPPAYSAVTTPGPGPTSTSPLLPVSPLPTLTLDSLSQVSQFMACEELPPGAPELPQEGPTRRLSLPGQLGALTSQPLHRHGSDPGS

OC[C@@H](O)[C@@H](O)[C@@H](O)CO [ribitol, (2R,3s,4S)-Pentane-1,2,3,4,5-pentol]
inhibition at 0.03 mM (hERG): 3.09% | inhibition at 0.3 mM (hERG): 6.43% | inhibition at 3 mM (hERG): 7.82% | subjects with increase in glycosylation of αDG (Phase 2 patient study; 6 g BID, 3 months): 3 of 4 | average decrease in creatine kinase (Phase 2 patient study; 6 g BID, day 90): 77% | subjects with increase in glycosylation of αDG (Phase 2 patient study; 6 g QD, 3 months): 4 of 4 | average decrease in creatine kinase (Phase 2 patient study; 6 g QD, day 90): 90% | average decrease in creatine kinase (Phase 2 patient study; 12 g BID, day 8): 33% | patients with decrease in patient-reported muscle fatigue (Phase 2 patient study; 90-day treatment period): 7 of 8 | Mean 10MWT (Ambulation) (Phase 2 patient study; Baseline, Cohort 1 (6 g QD)): 2.06 m/sec | Mean NSAD (Gross Motor Function) (Phase 2 patient study; Baseline, Cohort 1 (6 g QD)): 33.8 | Mean PUL2.0 (Upper Limb Function) (Phase 2 patient study; Baseline, Cohort 1 (6 g QD)): 37.3 | Mean 10MWT (Ambulation) (Phase 2 patient study; Baseline, Cohort 2 (6 g BID)): 1.48 m/sec | Mean NSAD (Gross Motor Function) (Phase 2 patient study; Baseline, Cohort 2 (6 g BID)): 28.5 | Mean PP Supine FVC (Respiratory Function) (Phase 2 patient study; Baseline, Cohort 2 (6 g BID)): 54.3 | Mean PUL2.0 (Upper Limb Function) (Phase 2 patient study; Baseline, Cohort 2 (6 g BID)): 35.8 | Mean 10MWT (Ambulation) (Phase 2 patient study; Baseline, Overall): 1.77 m/sec | Mean NSAD (Gross Motor Function) (Phase 2 patient study; Baseline, Overall): 31.1 | Mean PP Supine FVC (Respiratory Function) (Phase 2 patient study; Baseline, Overall): 54.3 | Mean PUL2.0 (Upper Limb Function) (Phase 2 patient study; Baseline, Overall): 36.5 | Mean 10MWT (Ambulation) (Phase 2 patient study; Day 90, Cohort 1 (6 g QD)): 2.82 m/sec | Mean NSAD (Gross Motor Function) (Phase 2 patient study; Day 90, Cohort 1 (6 g QD)): 33.5 | Mean PP Supine FVC (Respiratory Function) (Phase 2 patient study; Day 90, Cohort 1 (6 g QD)): 79.5 | Mean PUL2.0 (Upper Limb Function) (Phase 2 patient study; Day 90, Cohort 1 (6 g QD)): 37.3 | Mean 10MWT (Ambulation) (Phase 2 patient study; Day 90, Cohort 2 (6 g BID)): 1.56 m/sec | Mean NSAD (Gross Motor Function) (Phase 2 patient study; Day 90, Cohort 2 (6 g BID)): 29.0 | Mean PP Supine FVC (Respiratory Function) (Phase 2 patient study; Day 90, Cohort 2 (6 g BID)): 50.0 | Mean PUL2.0 (Upper Limb Function) (Phase 2 patient study; Day 90, Cohort 2 (6 g BID)): 36.3 | Mean 10MWT (Ambulation) (Phase 2 patient study; Day 90, Overall): 2.10 m/sec | Mean NSAD (Gross Motor Function) (Phase 2 patient study; Day 90, Overall): 31.3 | Mean PP Supine FVC (Respiratory Function) (Phase 2 patient study; Day 90, Overall): 64.8 | Mean PUL2.0 (Upper Limb Function) (Phase 2 patient study; Day 90, Overall): 36.8 | Mean 10MWT (Ambulation) (Phase 2 patient study; Delta, Cohort 1 (6 g QD)): 0.10 m/sec | Mean NSAD (Gross Motor Function) (Phase 2 patient study; Delta, Cohort 1 (6 g QD)): −0.3 | Mean PUL2.0 (Upper Limb Function) (Phase 2 patient study; Delta, Cohort 1 (6 g QD)): 0.0 | Mean 10MWT (Ambulation) (Phase 2 patient study; Delta, Cohort 2 (6 g BID)): 0.08 m/sec | Mean NSAD (Gross Motor Function) (Phase 2 patient study; Delta, Cohort 2 (6 g BID)): 0.5 | Mean PP Supine FVC (Respiratory Function) (Phase 2 patient study; Delta, Cohort 2 (6 g BID)): −4.3 | Mean PUL2.0 (Upper Limb Function) (Phase 2 patient study; Delta, Cohort 2 (6 g BID)): 0.5 | Mean 10MWT (Ambulation) (Phase 2 patient study; Delta, Overall): 0.09 m/sec | Mean NSAD (Gross Motor Function) (Phase 2 patient study; Delta, Overall): 0.1 | Mean PP Supine FVC (Respiratory Function) (Phase 2 patient study; Delta, Overall): −4.3 | Mean PUL2.0 (Upper Limb Function) (Phase 2 patient study; Delta, Overall): 0.3 | average increase in glycosylation of αDG (Phase 2 patient study; both cohorts (6 g QD, 6 g BID), 3 months): 13% | average drop in fatigue (scale of 1 to 10) (Phase 2 patient study; cohort 1 (6 g QD)): 1.3 points | average drop in fatigue (scale of 1 to 10) (Phase 2 patient study; cohort 2 (6 g BID)): 1.5 points | dose linearity with exposure ([1]; SAD 0.5-15 g): confirmed dose linearity with exposure | Cmax ([1]; 1.5 g, 1.5 g once daily): 25000 ng/mL | Tmax ([1]; 1.5 g, 1.5 g once daily): 30.2 min | AUC(0-t) ([1]; 1.5 g, 1.5 g once daily): 59.8 µg·h/mL | Cmax ([1]; 3 g, 3 g once daily): 35600 ng/mL | Tmax ([1]; 3 g, 3 g once daily): 30.2 min | AUC(0-t) ([1]; 3 g, 3 g once daily): 95 µg·h/mL | Cmax [1, 3]: 38000 ng/mL | Tmax [1, 3]: 30.1 min | AUC(0-t) [1, 3]: 219 µg·h/mL | Cmax [1, 4]: 107000 ng/mL | Tmax [1, 4]: 45 min | AUC(0-t) [1, 4]: 500 µg·h/mL | Cmax [1, 5]: 143000 ng/mL | Tmax [1, 5]: 30.1 min | AUC(0-t) [1, 5]: 673 µg·h/mL | dose limiting toxicity [1, 6]: no dose limiting toxicity was observed | tolerability [1, 6]: well tolerated | fraction unbound [2]: 0.554 to 0.614
